Laboratory results published in patent US20120141461A1, “COMPOSITIONS AND METHODS FOR DIAGNOSING AND TREATING FIBROTIC DISORDERS” (THE REGENTS OF THE UNIVERSITY OF MICHIGAN, priority 2009, published 2012).

B1: catalase: an enzyme which reduces H2O2 to H2O (protein, UniProt P04040 2-527, looked up)
Catalase: ADSRDPASDQMQHWKEQRAAQKADVLTTGAGNPVGDKLNVITVGPRGPLLVQDVVFTDEMAHFDRERIPERVVHAKGAGAFGYFEVTHDITKYSKAKVFEHIGKKTPIAVRFSTVAGESGSADTVRDPRGFAVKFYTEDGNWDLVGNNTPIFFIRDPILFPSFIHSQKRNPQTHLKDPDMVWDFWSLRPESLHQVSFLFSDRGIPDGHRHMNGYGSHTFKLVNANGEAVYCKFHYKTDQGIKNLSVEDAARLSQEDPDYGIRDLFNAIATGKYPSWTFYIQVMTFNQAETFPFNPFDLTKVWPHKDYPLIPVGKLVLNRNPVNYFAEVEQIAFDPSNMPPGIEASPDKMLQGRLFAYPDTHRHRLGPNYLHIPVNCPYRARVANYQRDGPMCMQDNQGGAPNYYPNSFGAPEQQPSALEHSIQYSGEVRRFNTANDDNVTQVRAFYVNVLNEEQRKRLCENIAGHLKDAQIFIQKKAVKNFTEVHPDYGSHIQALLDKYNAEKPKNAIHTFVQSGSHLAAREKANL

Assays:
C57BL/6 mice = experiment: Murine model of bleomycin-induced lung injury/fibrosis; assay type: in vivo, mouse
Method: RNA was extracted and expression of NOX4 mRNA analyzed by real-time PCR; (b) C57BL/6 mice were administered intra-tracheal (IT) bleomycin on day 0.
C57BL/6J mice (6-8 weeks of age; Jackson Laboratories, Bar Harbor, Me.) were anesthetized with intraperitoneal injection of ketamine and xylazine. Intra-tracheal bleomycin (0.025 U) or FITC (4.67 mg/ml suspension in PBS) was administered to induce lung injury. The University of Michigan Committee on the Use and Care of Animals approved the animal protocols.
(§1) For in vitro RNAi, cells were transfected with single duplexes targeting NOX4 or non-targeting control siRNA (100 nM) using Lipofectamine-2000 reagent. For in vivo RNAi studies, NOX4 siRNA or control nontargeting siRNA (Dharmacon Inc.) were administered at a dose of ˜50 μg per mouse by intratracheal injection with bleomycin, FITC, or saline, in a total volume of 50 μl using a 26-gauge needle.
(§2) Cell lysates were prepared in RIPA buffer, subjected them to SDS-PAGE under reducing conditions and performed western immunoblotting as previously described (Horowitz et al. J Biol Chem 279, 1359-1367 (2004), herein incorporated by reference in its entirety).
Acid-soluble collagen was measured in cell culture supernatants or whole lung homogenates using the Sircol assay as previously described (Vittal et al. Am J Pathol 166, 367-375 (2005), herein incorporated by reference in its entirety).
Murine whole lungs were homogenized in PBS, then acidified (by adding an equal volume of 12 N HCl), hydrolyzed (by heating at 120° C. for 24 h), and processed samples for hydroxyline measurements as previously described 29. Lung histology and immunohistochemical staining Paraffin embedded tissue sections were processed for lung histology and immunohistochemical staining as previously described described (Vittal et al. Am J Pathol 166, 367-375 (2005), herein incorporated by reference in its entirety).

[1] = tested on: human fetal lung mesenchymal cells (hFLMCs); experiment: TGF-β1-induced collagen gel contractility of hFLMCs in 3D-collagen matrices; assay type: cell-based; conditions: catalase at 750 U/ml
Method: (§3) Collagen gels were reconstituted by mixing 1 part of 3 mg/ml neutralized rat tail collagen type 1 and two parts of cell suspension in serum-free media. Cell suspensions were seeded at a density of 200,000 cells per ml into 24-well tissue culture plates and allowed the gels to polymerize at 37° C. for 1 h before adding 1 ml of media. Gels were incubated overnight prior to treatments, and gently detached the edge of the gels from the walls of the well using a sterile spatula. Gels were photographed and gel area was measured using ImageJ (NIH) software.

[2] = tested on: human fetal lung mesenchymal cells (hFLMCs); experiment: Myofibroblast differentiation markers in hFLMCs in 3D-collagen matrix, Western immunoblotting; assay type: cell-based; conditions: catalase 750 U/ml, TGF-β1 2 ng/ml x 16 h
Method: as §3, §1, §2

[3] = DPI 1.6 mg/kg daily intra-peritoneal on days 8 to 21, day 21

Molecule | protection from fibrosis, acid-soluble collagen in whole lung (C57BL/6 mice; DPI 1.6 mg/kg daily intra-peritoneal on days 8 to 21, Sircol assay on day 21) | expression of NOX4 and α-SMA expressing myofibroblasts (IHC) (C57BL/6 mice; [3]) | fibrosis by histopathology and Masson's trichrome staining for collagen (C57BL/6 mice; [3]) | TGF-β1-induced collagen gel contractility [1] | fibronectin synthesis induced by TGF-β1 [2] | upregulation of α-smooth muscle actin (α-SMA) induced by TGF-β1 [2]
c1ccc2c(c1)[I+]c1ccccc1-2 [DPI, diphenyleneiodonium chloride] | significant protection from fibrosis | reduced expression | reduced fibrosis |  |  | 
B1 |  |  |  | inhibited | inhibited | inhibited
